≈ marks a conversion by molar mass, not a printed value. Where “and” joins values, the source holds several entries; their conditions need not be identical. Identical values can stand only once. Like-named read-outs stand apart in the source and are kept apart here.
Experiments:
[1] = system: Mycobacterium tuberculosis H37Ra ATCC 25177; test: MIC against Mtb H37Ra, resazurin microtiter assay (REMA); format: cell-based; settings: for MIC: Mycobacterium tuberculosis, 336 h
[2] = system: replicating Mtb-lux (Mycobacterium tuberculosis CDC1551 with pMV306hsp+LuxG13); format: cell-based
[3] = system: dormant Mtb-lux (Mycobacterium tuberculosis CDC1551 with pMV306hsp+LuxG13); format: cell-based; settings: for R/D (MICR/MICD, Mtb-lux): ratio replicating MIC to dormant MIC
[4] = Cytotoxicity assay J774A.1; format: cell-based, murine; settings: mouse, J774A.1 macrophage-like cells; J774A.1 cells; read-out: Cytotoxicity (IC50) J774
Experimental: (§1) To evaluate the selectivity of the top six compounds from the Mtb-lux activity screen (Table 2), cytotoxicity for two different mammalian cell lines was determined. The IC50 was calculated for each compound against J774A.1 and HepG2 cell lines. The selectivity index (SI) for both replicating and dormant conditions was then calculated by taking the IC50 and dividing it by the corresponding MIC (SIR=IC50/MICR, SID=IC50/MICD)^40. Consistent with the experience, the J774 macrophage cell line was more sensitive to all compounds tested. […] Based on these observations, this triacetate protected puupehenone represents a promising candidate for further optimization.
(§2) Cytotoxicity assay: Cytotoxicity was assessed using J774A.1 (murine macrophage-like) and HepG2 (human liver carcinoma) cell lines using 2-fold dilution of the compounds as described previously^42, 43. IC50 values were determined using nonlinear regression fitting of the databy GraphPad Prism. The selectivity Index (SI) was calculated as IC50/MIC.

[5] = system: J774A.1 (murine macrophage-like) cell line; test: Cytotoxicity assay J774A.1; format: cell-based
Experimental: as §1, §2

[6] = system: TcdA production in C. difficile NAP1; test: Toxin analysis: extracellular TcdA of C. difficile NAP1 at sub-MICs, western blot; format: cell-based, Clostridioides difficile; set-up: Concentration at which TcdA was undetectable: unit not given here; settings: for Effect on TcdA toxin production: NAP1 challenged with 0.5×, 0.25×, 0.125× MIC, 48 h, TcdA normalized to total protein
Experimental: After a 48 h incubation of NAP1 challenged with several dilutions of each compound, extracellular toxin in spent media derived from triplicate cultures was assessed with western blots using a monoclonal antibody against TcdA. Semi-quantitative analysis of toxin levels was performed via densitometry of TcdA band intensity with respect to total protein as measured by the Bradford assay. Semi-quantitative plots are shown below each representative blot. (a) Toxin production in BHIS (NAP1) and BHIS with 5% DMSO (vehicle). (b) Toxin production from cultures challenged with sub-MICs of fidaxomicin, (c) vancomycin, and (d-j) (+)-puupehenone and selected derivatives. Data points represent the means of adjusted toxin levels derived from triplicate cultures, while error bars represent standard deviations. Statistical analysis was performed in GraphPad Prism 8 using unpaired t-tests. *P<0.05; **P<0.01.
To account for changes in biomass, a semi-quantitative analysis of TcdA production was performed by normalizing the target bands from representative western blots to the amount of total protein in each sample.
Toxin analysis. Toxin production was determined by analyzing the amount of extracellular toxin in the cultures from the ASTs described above. At 48 h, total protein of each culture was determined with the Bradford assay using bovine serum albumin (BSA) as a standard.^53 Cultures were then centrifuged at 5,000×g for 5 minutes to clear the supernatants which were separately collected and frozen at −20° C. After thawing at room temperature, cell-free supernatants were mixed 1:1 with 2× Laemmli buffer and incubated in a sand bath at 100° C. for 5 minutes. Twenty microliters of denatured samples were loaded onto 7.5% Tris-glycine gels and electrophoresed at 200 V for 1 h. After electrophoresis, samples were transferred to polyvinylidene difluoride membranes at 4° C. overnight at 30 V. Membranes were incubated in a blocking buffer (20 mM Tris-HCl, 150 mM NaCl, 0.01 mM ethylenediaminetetraacetic acid, 0.1% Tween 20, 1% BSA, [pH 7.5]) for 1 h at room temperature. TcdA was detected with a monoclonal mouse anti-TcdA antibody (PCG4.1, Novus Biologicals) and a rabbit anti-mouse antibody conjugated with alkaline phosphatase. Blots were visualized with a ChemiDoc XRS+ imaging system (Bio-Rad).
Semi-quantitative analysis of TcdA was performed using Image Lab 6.0 software (Bio-Rad). Briefly, after subtracting background noise, peaks corresponding to the target band were selected with the software's Lane Profile tool. The density of each peak generated a value (arbitrary units) that was normalized to the total protein amount of each respective sample. […] These losses of activity prevented us from performing statistical analysis from multiple experiments, as the sub-MICs were not always the same. Since there were no changes to the methodology described, several other reasons could have accounted for decreased activity, such as compound stability, freeze-thaw, and adherence to plastic. Nevertheless, the toxin results were reproducible, irrespective of the exact sub-MICs on different days.

Cytotoxicity assay HepG2 = settings: human
[7] = system: HepG2 (human liver carcinoma) cell line; test: Cytotoxicity assay HepG2
[8] = system: Clostridioides difficile NAP1; test: MIC against C. difficile NAP1, modified broth microdilution; settings: for MIC: Clostridioides difficile, NAP1, 48 h, read-out: MIC C. difficile, NAP1, modified broth microdilution, 48 h, anaerobic; for MIC C. difficile: NAP1, modified broth microdilution, 48 h, anaerobic
[9] = system: Bacillus subtilis ATCC 23857; test: MIC against B. subtilis, REMA; settings: for MIC B. subtilis: REMA, visual, 24 h
[10] = system: Enterococcus faecalis ATCC 29212; test: MIC against E. faecalis, REMA; settings: for MIC E. faecalis: REMA, visual, 24 h
[11] = system: Staphylococcus aureus ATCC 25923; test: MIC against S. aureus, REMA; settings: visual, 24 h
[12] = determined visually by REMA assay, 14-day incubation, read-out: MIC Mtb H37Ra
[13] = read-out: MIC Mtb H37Ra, determined visually by REMA assay, 14-day incubation

SMILES	MICR (Mtb-lux) [2] [µg/mL]	MICD (Mtb-lux) [3]	R/D (MICR/MICD, Mtb-lux) [3]	IC50 [4] [µM]	SI (SID) J774 [5]	SI (SIR) J774 [5]	IC50 (Cytotoxicity assay HepG2) [µM]	SI (SID) HepG2 [7]	SI (SIR) HepG2 [7]	MIC C. difficile [8]	other results
CC1(C)CCC[C@]2(C)[C@H]3C=C4C=C(O)C(=O)C=C4O[C@@]3(C)CC[C@@H]12 [Compound 1, (+)-Puupehenone]	3.0	0.5 µg/mL	6.0	23.2	46.4	7.7	70.6	141.2	23.5	2.0 µg/mL (≈ 6.09 µM)	MIC [1, 12]: 32.8 µg/mL (≈ 99.9 µM); Concentration at which TcdA was undetectable ([6]; NAP1, 48 h, western blot): 1; MIC [8]: 2 to 4 µg/mL (≈ 6.09 to 12.2 µM)
CCC(=O)Oc1cc2c(cc1OC(=O)CC)[C@@H](OC)[C@@H]1[C@@]3(C)CCCC(C)(C)[C@@H]3CC[C@]1(C)O2 [Compound 16]	8.9	1.7 µg/mL	5.2	60.6	35.7	6.8	> 200	> 117.6	> 22.5	–	MIC [1, 12]: 23.6 µg/mL (≈ 49.9 µM)
CO[C@@H]1c2cc(OC(=O)C(C)C)c(OC(=O)C(C)C)cc2O[C@@]2(C)CC[C@H]3C(C)(C)CCC[C@]3(C)[C@@H]12 [Compound 17]	8.6	10.1 µg/mL	0.9	–	–	–	–	–	–	–	MIC [1, 12]: 25 µg/mL (≈ 49.9 µM)
CO[C@@H]1c2cc(OC(=O)c3ccccc3)c(OC(=O)c3ccccc3)cc2O[C@@]2(C)CC[C@H]3C(C)(C)CCC[C@]3(C)[C@@H]12 [Compound 18]	>200	48.3 µg/mL	–	–	–	–	–	–	–	–	–
CO[C@@H]1c2cc(OC(=O)C(C)(C)C)c(O)cc2O[C@@]2(C)CC[C@H]3C(C)(C)CCC[C@]3(C)[C@@H]12 [Compound 19, 15-α-methoxypuupehenol monopivalate]	12.7	1.5 µg/mL	–	56.4	37.6	4.4	> 200	> 133.3	> 15.7	4.0 µg/mL (≈ 9 µM)	MIC [1, 13]: 44.4 µg/mL (≈ 99.9 µM); Effect on TcdA toxin production [6]: did not appear to substantially change toxin production; MIC ([9]; Bacillus subtilis, ATCC23857, 24 h, read-out: MIC B. subtilis): 22.2 µg/mL (≈ 50 µM); MIC ([10]; Enterococcus faecalis, ATCC29212, 24 h, read-out: MIC E. faecalis): 22.2 µg/mL (≈ 50 µM); MIC [8]: 2 to 4 µg/mL (≈ 4.5 to 9 µM)
CC(=O)Oc1cc2c(cc1OC(C)=O)[C@@H](OC(C)=O)[C@@H]1[C@@]3(C)CCCC(C)(C)[C@@H]3CC[C@]1(C)O2 [Compound 20, 15-α-acetoxypuupehenol diacetate]	6.0	1.4 µg/mL	4.3	> 200	> 142.3	> 33.3	> 200	> 142.3	> 33.3	2.0 µg/mL	MIC [1, 13]: 11.8 µg/mL; Cytotoxicity (IC50) J774 ([5]; J774A.1 cells): no cytotoxicity; Effect on TcdA toxin production [6]: decreased the amount of toxin in a similar concentration-dependent manner; Cytotoxicity (IC50) HepG2 ([7]; HepG2 cells): no cytotoxicity; MIC [8]: 2 to 4 µg/mL
CCC(=O)Oc1cc2c(cc1OC(=O)CC)[C@@H](OC(=O)CC)[C@@H]1[C@@]3(C)CCCC(C)(C)[C@@H]3CC[C@]1(C)O2 [Compound 21]	2.8	1.0 µg/mL and 1 µg/mL	2.8	26.4	26.4	9.4	64.2	64.2	22.9	–	MIC [1, 13]: 12.9 µg/mL (≈ 25.1 µM); MIC Mtb H37Ra ([1]; determined visually by REMA assay, 14-day incubation): 12.85 µg/mL (≈ 25 µM)
CC(C)C(=O)Oc1cc2c(cc1OC(=O)C(C)C)[C@@H](OC(=O)C(C)C)[C@@H]1[C@@]3(C)CCCC(C)(C)[C@@H]3CC[C@]1(C)O2 [Compound 22]	7.6	88.8 µg/mL	0.08	–	–	–	–	–	–	–	–
CC1(C)CCC[C@]2(C)[C@@H]1CC[C@]1(C)Oc3ccc(O)cc3C[C@@H]21 [Compound 31, (+)-Chromazonarol]	56.5	32 µg/mL	1.8	–	–	–	–	–	–	inactive	MIC Mtb H37Ra [1]: 31.4 µg/mL (≈ 99.9 µM); MIC S. aureus [11]: inactive; MIC B. subtilis [9]: 8.6 µg/mL (≈ 27.3 µM); MIC E. faecalis [10]: inactive
CC1(C)CCCC2(C)C1CCC(C)(O)C2Cc1ccc(OCc2ccccc2)cc1 (stereo not shown) [Compound 33]	57.5	40.4 µg/mL	1.4	–	–	–	–	–	–	–	MIC Mtb H37Ra [1]: 40.6 µg/mL (≈ 99.8 µM)
CC1(C)CCCC2(C)C1CCC(C)(O)C2Cc1ccc(O)cc1O (stereo not shown) [Compound 36]	–	–	–	–	–	–	–	–	–	8.0 µg/mL (≈ 24.1 µM)	Effect on TcdA toxin production [6]: did not appear to substantially change toxin production; MIC S. aureus [11]: 16.6 µg/mL (≈ 49.9 µM); MIC B. subtilis [9]: 8.2 µg/mL and 8.3 µg/mL; MIC E. faecalis [10]: 16.2 µg/mL (≈ 48.7 µM)
CC1(C)CCCC2(C)C1CCC(C)(O)C2Cc1ccc(O)c(O)c1 (stereo not shown) [Compound 38]	58.0	42.0 µg/mL	1.4	–	–	–	–	–	–	did not exhibit any activity	MIC S. aureus [11]: did not exhibit any activity; MIC B. subtilis [9]: did not exhibit any activity; MIC E. faecalis [10]: did not exhibit any activity
CC1(C)CCC[C@]2(C)[C@@H](Cc3cc(O)ccc3O)[C@](C)(O)CC[C@@H]12 [Compound 41, (+)-Yahazunol]	–	–	–	–	–	–	–	–	–	did not inhibit	MIC S. aureus [11]: 33.2 µg/mL (≈ 99.9 µM); MIC B. subtilis [9]: 33.2 µg/mL (≈ 99.9 µM)
CN[C@H](CC(C)C)C(=O)N[C@H]1C(=O)N[C@@H](CC(N)=O)C(=O)N[C@H]2C(=O)N[C@H]3C(=O)N[C@H](C(=O)N[C@H](C(=O)O)c4cc(O)cc(O)c4-c4cc3ccc4O)[C@H](O)c3ccc(c(Cl)c3)Oc3cc2cc(c3O[C@@H]2O[C@H](CO)[C@@H](O)[C@H](O)[C@H]2O[C@H]2C[C@](C)(N)[C@H](O)[C@H](C)O2)Oc2ccc(cc2Cl)[C@H]1O [vancomycin, reference compound]	–	–	–	–	–	–	–	–	–	–	Effect on TcdA toxin production [6]: reduced toxin production in a concentration-dependent manner
